Assay results published in US5395610A, “Agents for potentiating the effects of antitumor agents and combating multiple drug resistance” (Burroughs-Wellcome Co., priority 1989, dated 1995).

Experiments:
in vitro = assay type: cell-based, Chinese hamster; settings: hamster, cho auxb1 cells
[1] = In vitro cytotoxicity / potentiation of Actinomycin D in Chinese hamster ovary cells, drug resistant C5S32 (MTT); assay type: cell-based; settings: hamster, cho c5s32 cells, fraction of untreated cultures (1.00), read-out: Cytotoxicity, normalized absorbance, Drug Resistant C5S32, 0 (no Act D); for viability at 96 h, 1 µM: 1 μM potentiating agent alone; for viability at 96 h, 10 µM: 10 μM potentiating agent alone
[2] = system: Chinese hamster ovary (CHO) cells, drug resistant C5S32; assay: as above; assay type: cell-based; settings: 96 h, fraction of Act D alone (1.00)
[3] = In vitro cytotoxicity / potentiation of Actinomycin D in human KB epidermoid carcinoma cells, wildtype KB 3-1 (MTT); assay type: cell-based; settings: human, kb 3-1 cells, fraction of untreated cultures, read-out: Cytotoxicity, normalized absorbance, Wildtype KB 3-1, 0 (no Act D); for viability at 96 h, 1 µM: 1 μM potentiating agent alone; for viability at 96 h, 10 µM: 10 μM potentiating agent alone
[4] = system: human KB epidermoid carcinoma cells, wildtype KB 3-1; assay: as above; assay type: cell-based; settings: 96 h, fraction of Act D alone
[5] = In vitro cytotoxicity / potentiation of Actinomycin D in human KB epidermoid carcinoma cells, drug resistant KB V-1 (MTT); assay type: cell-based; settings: human, kb v-1 cells, fraction of untreated cultures, read-out: Cytotoxicity, normalized absorbance, Drug Resistant KB V-1, 0 (no Act D); for viability at 96 h, 1 µM: 1 μM potentiating agent alone; for viability at 96 h, 10 µM: 10 μM potentiating agent alone
[6] = system: human KB epidermoid carcinoma cells, drug resistant KB V-1; assay: as above; assay type: cell-based; settings: 96 h, fraction of Act D alone
[7] = 1 μM potentiating agent + Act D 0.5 μM
[8] = 10 μM potentiating agent + Act D 0.5 μM
[9] = 1 μM potentiating agent + Act D 0.1 nM
[10] = 10 μM potentiating agent + Act D 0.1 nM
[11] = 1 μM potentiating agent + Act D 20 nM
[12] = 10 μM potentiating agent + Act D 20 nM

For `CN(C)CC/C=C1/c2cc(Br)ccc2COc2ccccc21` [(C), (Z)-3-(9-Bromo-6,11-dihydrodibenz [b,e]oxepin-11-ylidene)-N,N-dimethylpropylamine], the viability at 96 h, 1 µM (in vitro) was 100%, the viability at 96 h, 10 µM (in vitro) was 92% and the viability at 96 h, 1 µM [1] was 100%. For the same molecule, the viability at 96 h, 10 µM [1] was 100%, the “Synergism with Actinomycin D, normalized absorbance, Drug Resistant C5S32, +ACT D” value [2, 7] was 0.90 and the “Synergism with Actinomycin D, normalized absorbance, Drug Resistant C5S32, +ACT D” value [2, 8] was 0.54. The viability at 96 h, 1 µM [3] was 100%, the viability at 96 h, 10 µM [3] was 100% and the “Synergism with Actinomycin D, normalized absorbance, Wildtype KB 3-1, +ACT D” value [4, 9] was 0.78. For the same molecule, the “Synergism with Actinomycin D, normalized absorbance, Wildtype KB 3-1, +ACT D” value [4, 10] was 0.75, the viability at 96 h, 1 µM [5] was 100% and the viability at 96 h, 10 µM [5] was 34%. For the same molecule, the “Synergism with Actinomycin D, normalized absorbance, Drug Resistant KB V-1, +ACT D” value [6, 11] was 0.97 and the “Synergism with Actinomycin D, normalized absorbance, Drug Resistant KB V-1, +ACT D” value [6, 12] was 0.36.

With `CN(C)CC/C=C1/c2ccccc2COc2c(Br)cccc21` [(D), (Z)-3-(4-Bromo-6,11-dihydrodibenz [b,e]oxepin-11-ylidene)-N,N-dimethylpropylamine] the viability at 96 h, 1 µM (in vitro) was 100%, the viability at 96 h, 10 µM (in vitro) was 100% and the viability at 96 h, 1 µM [1] was 89%. For the same molecule, the viability at 96 h, 10 µM [1] was 34%, the “Synergism with Actinomycin D, normalized absorbance, Drug Resistant C5S32, +ACT D” value [2, 7] was 0.71 and the “Synergism with Actinomycin D, normalized absorbance, Drug Resistant C5S32, +ACT D” value [2, 8] was 0.31. For the same molecule, the viability at 96 h, 1 µM [3] was 88%, the viability at 96 h, 10 µM [3] was 51% and the “Synergism with Actinomycin D, normalized absorbance, Wildtype KB 3-1, +ACT D” value [4, 9] was 0.86. For the same molecule, the “Synergism with Actinomycin D, normalized absorbance, Wildtype KB 3-1, +ACT D” value [4, 10] was 0.65, the viability at 96 h, 1 µM [5] was 75% and the viability at 96 h, 10 µM [5] was 36%. The “Synergism with Actinomycin D, normalized absorbance, Drug Resistant KB V-1, +ACT D” value [6, 11] was 0.78 and the “Synergism with Actinomycin D, normalized absorbance, Drug Resistant KB V-1, +ACT D” value [6, 12] was 0.01.

Work on `Brc1ccc2c(c1)/C(=C/CCN1CCCC1)c1ccccc1CO2` [(K), (E)-1-[3-(2-Bromo-6,11-dihydrodibenz [b,e]-oxepin-11-ylidene)propyl]pyrrolidine] yielded a viability at 96 h, 1 µM (in vitro) of 83%, a viability at 96 h, 10 µM (in vitro) of 87% and a viability at 96 h, 1 µM [1] of 100%. The viability at 96 h, 10 µM [1] was 100%, the “Synergism with Actinomycin D, normalized absorbance, Drug Resistant C5S32, +ACT D” value [2, 7] was 0.79 and the “Synergism with Actinomycin D, normalized absorbance, Drug Resistant C5S32, +ACT D” value [2, 8] was 0.28. For the same molecule, the viability at 96 h, 1 µM [3] was 85%, the viability at 96 h, 10 µM [3] was 100% and the “Synergism with Actinomycin D, normalized absorbance, Wildtype KB 3-1, +ACT D” value [4, 9] was 0.77. For the same molecule, the “Synergism with Actinomycin D, normalized absorbance, Wildtype KB 3-1, +ACT D” value [4, 10] was 0.03, the viability at 96 h, 1 µM [5] was 86% and the viability at 96 h, 10 µM [5] was 8%. For the same molecule, the “Synergism with Actinomycin D, normalized absorbance, Drug Resistant KB V-1, +ACT D” value [6, 11] was 0.88 and the “Synergism with Actinomycin D, normalized absorbance, Drug Resistant KB V-1, +ACT D” value [6, 12] was 0.13.

Work on `CN(C)CC/C=C1\c2ccccc2COc2ccc(F)cc21` [(P), (E)-3-(2-fluoro-6,11-dihydrodibenz [b,e]oxepin-11-ylidine)-N,N-dimethylpropylamine] yielded a viability at 96 h, 1 µM (in vitro) of 100%, a viability at 96 h, 10 µM (in vitro) of 100% and a viability at 96 h, 1 µM [1] of 61%. For the same molecule, the viability at 96 h, 10 µM [1] was 31%, the “Synergism with Actinomycin D, normalized absorbance, Drug Resistant C5S32, +ACT D” value [2, 7] was 0.70 and the “Synergism with Actinomycin D, normalized absorbance, Drug Resistant C5S32, +ACT D” value [2, 8] was 0.38. For the same molecule, the viability at 96 h, 1 µM [3] was 65%, the viability at 96 h, 10 µM [3] was 65% and the “Synergism with Actinomycin D, normalized absorbance, Wildtype KB 3-1, +ACT D” value [4, 9] was 0.72. The “Synergism with Actinomycin D, normalized absorbance, Wildtype KB 3-1, +ACT D” value [4, 10] was 0.71, the viability at 96 h, 1 µM [5] was 73% and the viability at 96 h, 10 µM [5] was 52%. For the same molecule, the “Synergism with Actinomycin D, normalized absorbance, Drug Resistant KB V-1, +ACT D” value [6, 11] was 0.72 and the “Synergism with Actinomycin D, normalized absorbance, Drug Resistant KB V-1, +ACT D” value [6, 12] was 0.58.

With `CN(C)CCC=C1c2ccc(Br)cc2COc2ccccc21` [(L), (E)/(Z) -3-(8-Bromo-6,11-dihydrodibenz [b,e]-oxepine-11-ylidene)-N,N-dimethylpropylamine (80% Z:20% E)] the viability at 96 h, 1 µM (in vitro) was 83%, the viability at 96 h, 10 µM (in vitro) was 81% and the viability at 96 h, 1 µM [1] was 92%. For the same molecule, the viability at 96 h, 10 µM [1] was 99%, the “Synergism with Actinomycin D, normalized absorbance, Drug Resistant C5S32, +ACT D” value [2, 7] was 0.85 and the “Synergism with Actinomycin D, normalized absorbance, Drug Resistant C5S32, +ACT D” value [2, 8] was 0.42. For the same molecule, the viability at 96 h, 1 µM [3] was 100%, the viability at 96 h, 10 µM [3] was 97% and the “Synergism with Actinomycin D, normalized absorbance, Wildtype KB 3-1, +ACT D” value [4, 10] was 0.94. The viability at 96 h, 1 µM [5] was 98%, the viability at 96 h, 10 µM [5] was 51% and the “Synergism with Actinomycin D, normalized absorbance, Drug Resistant KB V-1, +ACT D” value [6, 11] was 1.00. The “Synergism with Actinomycin D, normalized absorbance, Drug Resistant KB V-1, +ACT D” value [6, 12] was 0.23.

`Brc1ccc2c(c1)/C(=C\CCN1CCCC1)c1cc(Br)ccc1OC2` [(R), (E)-1-[3-(2,9-dibromo-6,11-dihydrodibenz [b,e]-oxepin-11-ylidene)propyl]pyrrolidine] showed a viability at 96 h, 1 µM (in vitro) of 99%, a viability at 96 h, 10 µM (in vitro) of 95% and a viability at 96 h, 1 µM [1] of 50%. The viability at 96 h, 10 µM [1] was 11%, the “Synergism with Actinomycin D, normalized absorbance, Drug Resistant C5S32, +ACT D” value [2, 7] was 0.52 and the “Synergism with Actinomycin D, normalized absorbance, Drug Resistant C5S32, +ACT D” value [2, 8] was 0.11. For the same molecule, the viability at 96 h, 1 µM [3] was 78%, the viability at 96 h, 10 µM [3] was 36% and the “Synergism with Actinomycin D, normalized absorbance, Wildtype KB 3-1, +ACT D” value [4, 9] was 0.84. The “Synergism with Actinomycin D, normalized absorbance, Wildtype KB 3-1, +ACT D” value [4, 10] was 0.34, the viability at 96 h, 1 µM [5] was 87% and the viability at 96 h, 10 µM [5] was 6%. The “Synergism with Actinomycin D, normalized absorbance, Drug Resistant KB V-1, +ACT D” value [6, 11] was 0.90 and the “Synergism with Actinomycin D, normalized absorbance, Drug Resistant KB V-1, +ACT D” value [6, 12] was 0.02.

For `Brc1ccc2c(c1)/C(=C\CN1CCCC1)c1ccccc1CO2` [(F), (Z)-1-[2-(2-Bromo-6,11-dihydrodibenz [b,e]-oxepin-11-ylidene)ethyl]pyrrolidine], the viability at 96 h, 1 µM (in vitro) was 100%, the viability at 96 h, 10 µM (in vitro) was 88% and the viability at 96 h, 1 µM [1] was 82%. For the same molecule, the viability at 96 h, 10 µM [1] was 28%, the “Synergism with Actinomycin D, normalized absorbance, Drug Resistant C5S32, +ACT D” value [2, 7] was 0.68 and the “Synergism with Actinomycin D, normalized absorbance, Drug Resistant C5S32, +ACT D” value [2, 8] was 0.19. For the same molecule, the viability at 96 h, 1 µM [3] was 84%, the viability at 96 h, 10 µM [3] was 78% and the “Synergism with Actinomycin D, normalized absorbance, Wildtype KB 3-1, +ACT D” value [4, 9] was 0.86. The “Synergism with Actinomycin D, normalized absorbance, Wildtype KB 3-1, +ACT D” value [4, 10] was 0.68, the viability at 96 h, 1 µM [5] was 80% and the viability at 96 h, 10 µM [5] was 59%. For the same molecule, the “Synergism with Actinomycin D, normalized absorbance, Drug Resistant KB V-1, +ACT D” value [6, 11] was 0.77 and the “Synergism with Actinomycin D, normalized absorbance, Drug Resistant KB V-1, +ACT D” value [6, 12] was 0.12.

`CN(C)CC/C=C1/c2ccccc2COc2ccc(F)cc21` [(Q), (Z)-3-(2-fluoro-6,11-dihydrodibenz [b,e]oxepin-11-ylidene)-N,N-dimethylpropylamine] gave a viability at 96 h, 1 µM (in vitro) of 97%, a viability at 96 h, 10 µM (in vitro) of 93% and a viability at 96 h, 1 µM [1] of 53%. For the same molecule, the viability at 96 h, 10 µM [1] was 33%, the “Synergism with Actinomycin D, normalized absorbance, Drug Resistant C5S32, +ACT D” value [2, 7] was 0.69 and the “Synergism with Actinomycin D, normalized absorbance, Drug Resistant C5S32, +ACT D” value [2, 8] was 0.37. The viability at 96 h, 1 µM [3] was 92%, the viability at 96 h, 10 µM [3] was 77% and the “Synergism with Actinomycin D, normalized absorbance, Wildtype KB 3-1, +ACT D” value [4, 9] was 0.91. The “Synergism with Actinomycin D, normalized absorbance, Wildtype KB 3-1, +ACT D” value [4, 10] was 0.78, the viability at 96 h, 1 µM [5] was 86% and the viability at 96 h, 10 µM [5] was 80%. For the same molecule, the “Synergism with Actinomycin D, normalized absorbance, Drug Resistant KB V-1, +ACT D” value [6, 11] was 0.83 and the “Synergism with Actinomycin D, normalized absorbance, Drug Resistant KB V-1, +ACT D” value [6, 12] was 0.65.

`Fc1ccc2c(c1)/C(=C\CCN1CCCC1)c1ccccc1CO2` [(T), (Z)-1-[3-(2-fluoro-6,11-dihydrodibenz [b,e]-oxepin-11-ylidene)propyl]pyrrolidine] gave a viability at 96 h, 1 µM (in vitro) of 100%, a viability at 96 h, 10 µM (in vitro) of 100% and a viability at 96 h, 1 µM [1] of 100%. The viability at 96 h, 10 µM [1] was 100%, the “Synergism with Actinomycin D, normalized absorbance, Drug Resistant C5S32, +ACT D” value [2, 7] was 1.00 and the “Synergism with Actinomycin D, normalized absorbance, Drug Resistant C5S32, +ACT D” value [2, 8] was 0.53. For the same molecule, the viability at 96 h, 1 µM [3] was 86%, the viability at 96 h, 10 µM [3] was 81% and the “Synergism with Actinomycin D, normalized absorbance, Wildtype KB 3-1, +ACT D” value [4, 9] was 0.90. The “Synergism with Actinomycin D, normalized absorbance, Wildtype KB 3-1, +ACT D” value [4, 10] was 0.83, the viability at 96 h, 1 µM [5] was 96% and the viability at 96 h, 10 µM [5] was 84%. The “Synergism with Actinomycin D, normalized absorbance, Drug Resistant KB V-1, +ACT D” value [6, 11] was 0.92 and the “Synergism with Actinomycin D, normalized absorbance, Drug Resistant KB V-1, +ACT D” value [6, 12] was 0.64.
